Test systems include BT-549 breast; SF-295 CNS; NCI-H522 lung; MALME-3M melanoma; HCT-116 colon; ACHN renal; IGROV1 ovarian; RPMI-8226 leukemia; MDA-MB-435; NCI/ADR-RES ovarian; SNB-75 CNS; NCI-H460 lung; MDA-N; PC-3 prostate; KM12 colon; DU-145 prostate; NCI-H226 lung; SK-MEL-5 melanoma; RXF 393 renal; A498 renal.
Common to all, as to assay: NCI-60 cell line screen, 48 h

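In this assay, cells in 96-well plates receive the compound at five concentrations for 48 hours. Endpoints are linearly interpolated between the surrounding concentrations. TGI denotes the concentration required for complete inhibition of growth.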

Turning to `CN(C)CCNC1=CC(=O)c2nc3ccccc3c3ccnc1c23`, the TGI stood at 21.4 µM in the test with BT-549 breast; 19.8 µM with SF-295 CNS; 16.2 µM in the test on NCI-H522 lung; 16.2 µM in the test on MALME-3M melanoma; 14.8 µM in the test on HCT-116 colon; 15 µM in the test with ACHN renal. For the same compound, the TGI with IGROV1 ovarian was found to be 14.8 µM; with RPMI-8226 leukemia, 55.5 µM; in the test with MDA-MB-435, 20 µM; in the test with NCI/ADR-RES ovarian, 28.5 µM; with SNB-75 CNS it was 27.8 µM; in the test on NCI-H460 lung, 9.91 µM. The TGI was 20.7 µM in the test on MDA-N; 17.2 µM in the test on PC-3 prostate; 17.4 µM in the test with KM12 colon; 22.4 µM with DU-145 prostate; 18.8 µM with NCI-H226 lung.
In the case of `CNC(=O)C1CCCN1C(=O)C(Cc1cnc[nH]1)NC(=O)C1CCC(=O)N1` (stereo not given), the TGI in the test with BT-549 breast, in the test with SF-295 CNS, in the test with NCI-H522 lung, in the test with MALME-3M melanoma, with HCT-116 colon and in the test on ACHN renal was more than 100 µM in each case. The TGI in the test with IGROV1 ovarian, in the test with RPMI-8226 leukemia, in the test on MDA-MB-435, in the test on SK-MEL-5 melanoma, with NCI/ADR-RES ovarian and in the test with SNB-75 CNS was more than 100 µM throughout. The TGI in the test with NCI-H460 lung, in the test on RXF 393 renal, with MDA-N, in the test with PC-3 prostate, with KM12 colon and with DU-145 prostate was more than 100 µM in each case. For the same compound, the TGI with NCI-H226 lung was more than 100 µM.
Regarding `O=P(c1ccccc1)(c1ccccc1)c1ccc2c(c1)OCCOCCOCCOCCO2`, the TGI in the test on BT-549 breast, with SF-295 CNS, in the test with NCI-H522 lung, with A498 renal, in the test with MALME-3M melanoma and with HCT-116 colon was more than 100 µM throughout. The TGI in the test on ACHN renal, in the test on IGROV1 ovarian, with RPMI-8226 leukemia, with MDA-MB-435, in the test on SK-MEL-5 melanoma and in the test on SNB-75 CNS was more than 100 µM throughout. Also, the TGI with NCI-H460 lung, in the test with MDA-N, in the test on PC-3 prostate, in the test with KM12 colon, in the test on DU-145 prostate and in the test with NCI-H226 lung was more than 100 µM in each case.
Take `CC1C2(C)OC(=N)C(C#N)(C(C)O2)C1(C#N)C#N` (stereo not given): the TGI with BT-549 breast is 92.5 µM; in the test with SF-295 CNS, more than 100 µM; in the test on A498 renal it was more than 100 µM; in the test with MALME-3M melanoma, 62.3 µM; with HCT-116 colon, 65 µM; in the test on ACHN renal it was more than 100 µM. Further, the TGI in the test with IGROV1 ovarian is more than 100 µM; in the test with SK-MEL-5 melanoma, 25.8 µM; in the test on NCI/ADR-RES ovarian it was more than 100 µM; in the test on SNB-75 CNS it was more than 100 µM; with NCI-H460 lung, 42.8 µM; with RXF 393 renal, 35.7 µM. Also, the TGI in the test with MDA-N is 36.1 µM; in the test with PC-3 prostate it was more than 100 µM; with KM12 colon, more than 100 µM; with DU-145 prostate it was 87 µM; in the test with NCI-H226 lung, more than 100 µM.
On to `COc1cc([C@@H]2c3cc4c(cc3[C@@H](OC3OC5COC(C)OC5C(OC(=O)CN5CCN(C)CC5)C3OC(=O)CN3CCN(C)CC3)C3COC(=O)[C@@H]32)OCO4)cc(OC)c1OC(=O)CN1CCN(C)CC1` (stereo not given in full), for which the TGI in the test on BT-549 breast, with SF-295 CNS, in the test with NCI-H522 lung, in the test on MALME-3M melanoma, with HCT-116 colon and in the test with ACHN renal was more than 100 µM each time. For the same compound, the TGI with IGROV1 ovarian is more than 100 µM; in the test on MDA-MB-435, more than 100 µM; in the test on SK-MEL-5 melanoma it was more than 100 µM; in the test with NCI/ADR-RES ovarian, more than 100 µM; with SNB-75 CNS, 84.9 µM; in the test with NCI-H460 lung, more than 100 µM. The TGI with RXF 393 renal, with MDA-N, in the test on PC-3 prostate, in the test with KM12 colon, in the test on DU-145 prostate and with NCI-H226 lung was more than 100 µM each time.
For `CCCC(=O)NC(C(=O)OCC)(N1CCOCC1)C(F)(F)F` (stereo not given), the TGI in the test with BT-549 breast, with SF-295 CNS, in the test with NCI-H522 lung, with MALME-3M melanoma, in the test on HCT-116 colon and in the test on ACHN renal was more than 100 µM throughout. The TGI in the test with IGROV1 ovarian, in the test with RPMI-8226 leukemia, in the test with MDA-MB-435, with SK-MEL-5 melanoma, in the test on NCI/ADR-RES ovarian and with SNB-75 CNS was more than 100 µM throughout. For the same compound, the TGI in the test with RXF 393 renal, with MDA-N, in the test on PC-3 prostate, with KM12 colon, in the test with DU-145 prostate and in the test on NCI-H226 lung was more than 100 µM each time.
`CC1=CC(=O)C(=CN2C(=O)/C(=C\c3cccnc3)NC2=S)C(=O)O1`: the TGI with BT-549 breast, in the test on SF-295 CNS, with HCT-116 colon, with ACHN renal, with IGROV1 ovarian and with MDA-MB-435 was more than 100 µM in each case. Besides, the TGI in the test with SK-MEL-5 melanoma, with NCI/ADR-RES ovarian, with SNB-75 CNS, with NCI-H460 lung, with MDA-N and in the test with PC-3 prostate was more than 100 µM each time. For the same compound, the TGI with KM12 colon, with DU-145 prostate and in the test on NCI-H226 lung was more than 100 µM throughout.
Turning to `COC(=O)/C(=N\NC(=S)NN)C(C(=O)OC)C(=O)C(=O)Nc1cccc(C(F)(F)F)c1` (stereo not given), the TGI with BT-549 breast, with SF-295 CNS, with NCI-H522 lung, in the test with A498 renal, in the test with MALME-3M melanoma and with HCT-116 colon was more than 100 µM each time. The TGI in the test on ACHN renal, with IGROV1 ovarian, in the test on RPMI-8226 leukemia, in the test on MDA-MB-435, with SK-MEL-5 melanoma and in the test on NCI/ADR-RES ovarian was more than 100 µM throughout. Besides, the TGI in the test with SNB-75 CNS, with NCI-H460 lung, with RXF 393 renal, with MDA-N, in the test with PC-3 prostate and in the test with KM12 colon was more than 100 µM each time. The same compound had a TGI with NCI-H226 lung of more than 100 µM.
As for `COc1cc([C@H]2CC(=O)C[C@@H](c3cc(OC)c(OC)c(OC)c3)C23C(=O)c2ccccc2C3=O)cc(OC)c1OC`, the TGI with BT-549 breast, in the test with SF-295 CNS, with NCI-H522 lung, in the test on MALME-3M melanoma, with HCT-116 colon and in the test on ACHN renal was more than 100 µM throughout. Besides, the TGI in the test on IGROV1 ovarian, in the test with RPMI-8226 leukemia, with MDA-MB-435, with SK-MEL-5 melanoma, in the test with NCI/ADR-RES ovarian and in the test with SNB-75 CNS was more than 100 µM in each case. The TGI in the test on NCI-H460 lung, in the test on RXF 393 renal, with MDA-N, with PC-3 prostate, in the test on KM12 colon and in the test with DU-145 prostate was more than 100 µM in each case. In addition, in the test with NCI-H226 lung, the TGI is more than 100 µM.
For the compound `NC(=O)CCC(CCC(N)=O)(CCC(N)=O)[N+](=O)[O-]`, the TGI with BT-549 breast, in the test on SF-295 CNS, in the test with NCI-H522 lung, in the test on MALME-3M melanoma, in the test on HCT-116 colon and in the test on ACHN renal was more than 100 µM each time. Moreover, the TGI in the test on IGROV1 ovarian, in the test with RPMI-8226 leukemia, in the test on MDA-MB-435, in the test on SK-MEL-5 melanoma, in the test on NCI/ADR-RES ovarian and in the test on SNB-75 CNS was more than 100 µM in each case. Further, the TGI in the test on NCI-H460 lung, in the test on RXF 393 renal, with MDA-N, with PC-3 prostate, in the test on KM12 colon and in the test on DU-145 prostate was more than 100 µM throughout. This compound registered a TGI in the test with NCI-H226 lung of more than 100 µM.
Turning to `CCC(CCN)(CCN)[N+](=O)[O-]`, the TGI with BT-549 breast, with SF-295 CNS, in the test on NCI-H522 lung, in the test with MALME-3M melanoma, with HCT-116 colon and in the test on IGROV1 ovarian was more than 100 µM in each case. Moreover, the TGI with RPMI-8226 leukemia, with MDA-MB-435, in the test with SK-MEL-5 melanoma, in the test on NCI/ADR-RES ovarian, in the test on SNB-75 CNS and in the test on NCI-H460 lung was more than 100 µM each time. The TGI in the test on RXF 393 renal, in the test with MDA-N, in the test on PC-3 prostate, in the test with KM12 colon and with DU-145 prostate was more than 100 µM in each case.
In the case of `C/C(=N\Nc1nc2ccccc2s1)c1cnccn1`, the TGI is more than 100 µM with BT-549 breast; more than 23.5 µM with SF-295 CNS; 2.92 µM in the test on NCI-H522 lung; 43.7 µM in the test on MALME-3M melanoma; more than 36.8 µM with HCT-116 colon; 21.1 µM with ACHN renal. Besides, the TGI with IGROV1 ovarian is 7.28 µM; in the test on RPMI-8226 leukemia it was more than 47.8 µM; in the test on MDA-MB-435, more than 100 µM; in the test with SK-MEL-5 melanoma, 16 µM; in the test on NCI/ADR-RES ovarian it was 4.88 µM; with SNB-75 CNS, more than 31.3 µM. For the same compound, the TGI in the test on NCI-H460 lung is 15 µM; in the test on RXF 393 renal it was 40.7 µM; with MDA-N it was more than 100 µM; in the test with PC-3 prostate it was more than 67.4 µM; in the test on KM12 colon, 15.2 µM; in the test with DU-145 prostate it was more than 100 µM. This compound yielded a TGI in the test with NCI-H226 lung of 1.38 µM.

Source of the values: PubChem BioAssay (NCI).
